Results from patent US8168681B2, “Amidoacetonitrile compounds and pesticidal composition thereof” (Novartis AG, priority 2008, dated 2012).

Experiments:
Haemonchus contortus [1] = test: In-vivo test on Mongolian gerbils using peroral application; set-up: species or system Mongolian gerbils (Meriones unguiculatus); details: repeated test 2a, gerbil, 0.32 mg/kg
Experimental: (§1) Six to eight week old Mongolian gerbils are infected through a stomach tube with ca. 2000 third instar larvae each of T. colubriformis and H. contortus. 6 days after infection, the gerbils are treated by peroral application with the test compounds, dissolved in a mixture of 2 parts DMSO and 1 part polyethylene glycol (PEG 400). On day 9 (3 days after treatment), when most of the H. contortus that are still present are late 4th instar larvae and most of the T. colubriformis are immature adults, the gerbils are killed in order to count the worms. The efficacy is calculated as the % reduction of the number of worms in each gerbil, compared with the geometric average of number of worms from 6 infected and untreated gerbils.
(§2) The above described in-vivo test on Trichostrongylus colubriformis (Tc) and Haemonchus contortus ([…]) was repeated with compounds 1.2, 1.3 and 1.5 from Table 1 and with the compounds of Examples 1a and 3a on pages 22-25 of WO 2008/96231.

[2] = test system: Trichostrongylus colubriformis; test: as above; set-up: species or system Mongolian gerbils (Meriones unguiculatus); details: repeated test 2a, gerbil, 0.32 mg/kg
Experimental: as §1, §2

Haemonchus contortus [3] = test: Activity in vitro (egg hatch / larval development, 96-well agar plate); details: 0.1 ppm; 6 days at 25° C.; reduced egg hatch, reduced development of L3, or paralysis & death of larvae
Experimental: (§3) Freshly harvested and cleaned nematode eggs are used to seed a suitably formatted 96-well plate containing the test substances to be evaluated for antiparasitic activity. Each compound is tested by serial dilution in order to determine its MED. The test compounds are embedded in an agar-based nutritive medium allowing the full development of eggs through to 3rd instar larvae. The plates are incubated for 6 days at 25° C. and 60% relative humidity (RH). Egg-hatching and ensuing larval development are recorded to identify a possible nematodicidal activity. Efficacy is expressed in percent reduced egg hatch, reduced development of L3, or paralysis & death of larvae of all stages.

[4] = test system: Trichostrongylus colubriformis; test: as above; details: 0.1 ppm; 6 days at 25° C.; reduced egg hatch, reduced development of L3, or paralysis & death of larvae
Experimental: as §3

SMILES	Efficacy against Hc [%] (Haemonchus contortus [1])	Efficacy against Tc [%] [2] [%]	efficacy against Haemonchus contortus (Haemonchus contortus [3])	efficacy against Trichostrongylus colubriformis [4]
CC(C#N)(COc1cc(C#N)ccc1Oc1ccc(Cl)cc1Cl)NC(=O)c1ccc(S(F)(F)(F)(F)F)cc1 (stereo not drawn) [Compound 1.2, N-[1-cyano-1-methyl-2-(5-cyano-2-{2,4-dichlorophenoxy}-phenoxy)-ethyl]-4-pentafluorothio-benzamide]	98	100		
CC(C#N)(COc1cc(C#N)ccc1Oc1ccc(F)cc1Br)NC(=O)c1ccc(S(F)(F)(F)(F)F)cc1 (stereo not drawn) [Compound 1.3, N-[1-cyano-1-methyl-2-(5-cyano-2-{2-bromo-4-fluorophenoxy}-phenoxy)-ethyl]-4-pentafluorothio-benzamide]	100	98		
CC(C#N)(COc1cc(C#N)ccc1C(F)(F)F)NC(=O)c1ccc(S(F)(F)(F)(F)F)cc1 (stereo not drawn) [reference compound]	85	33		
CC(C#N)(COc1ccc(C#N)cc1C(F)(F)F)NC(=O)c1ccc(S(F)(F)(F)(F)F)cc1 (stereo not drawn) [reference compound]	40	23		
CC(C#N)(COc1cc(C#N)ccc1Oc1ccc(OC(F)(F)F)cc1Cl)NC(=O)c1ccc(S(F)(F)(F)(F)F)cc1 (stereo not drawn) [Compound 1.5, N-[1-cyano-1-methyl-2-(5-cyano-2-{2-chloro-4-trifluoromethoxy-phenoxy}-phenoxy)-ethyl]-4-pentafluorothio-benzamide]	100	99		
CC(C#N)(COc1cc(Cl)ccc1Oc1ccc(Cl)cc1Cl)NC(=O)c1ccc(S(C)(=O)=O)cc1 (stereo not drawn) [Compound 1.10, N-[1-cyano-1-methyl-2-(5-chloro-2-{2,4-dichlorophenoxy}-phenoxy)-ethyl]-4-methylsulfonyl-benzamide]			more than 90%	more than 90%
